Measured values as given in patent publication US20040116499A1, “Indole derivatives having an inhibitory effect on protein kinases” (priority 2001, published 2004).

System: protein kinase C
Test: Inhibition of the protein kinase C activity in vitro (protein kinase C assay kit, Calbiochem)
Assay type: biochemical
Conditions: both isomers as well as the racemate; test not specified at the place
Description: For testing the inhibitory effect on protein kinase C a commercially available protein kinase C assay kit (e.g. Calbiochem, Cat. No. 538484) may be employed. For this purpose the phosphorylation of a pseudosubstrate is measured by means of a specific antibody. The substances to be investigated are employed as solution in dimethylsulfoxid. […] By means of this assay the effects on individual PKC isoforms and the inhibition thereof may be tested. The effective concentration may be then determined at a given ATP concentration.
According to this Calbiochem kit it is worked with a batch of 200 μl/well in the following manner: 13 μl of buffer solution, 26 μl of 1 mM ATP (pH 7.0), 13 μl of phosphatidyl serine (500 μg/ml), 13 μl of 20 mM CaCl2, 65 μl of H2O and 55 μl of H2O, respectively, and 10 μl of inhibitor solution in DMSO are mixed, wherein 108 μl are added to an uncoated well. 12 μl of PKC solution (protein content and activity respectively of 0.1 U/12 μl) are added thereto and 100 μl thereof are added to the coated microtiter plate. After incubation for 20 min at room temperature 100 μl stop solution is added. Then washing is done five times with washing solution. […] Thereafter there is again a treatment with 100 μl of stop solution, and then the measurement is done in the Elisa reader at 492 nm. […]

## O=C(O)C1Cc2c([nH]c3ccccc23)C2(N1)C(=O)C(c1c[nH]c3ccccc13)=C(c1c[nH]c3ccccc13)C2=O (stereo not shown) [Pityriarubine A]
  inhibitory effect: distinct inhibitory effect
